Source: patent publication US20110053872A1, “Pharmaceutical Composition For Preventing And Treating Diabetic Nephropathy And The Preparation Method Thereof” (GUANGZHOU CONSUN MEDICINE R & D CO., LTD., priority 2009, published 2011)

Tests used:
TGFβ-1 = TGFβ-1 expression induced by high glucose (immunohistochemical staining, FIG. 2); type: cell-based, rat; details: 25 mM glucose
Procedure: wherein A: normal glucose group; B: high glucose group (25 mM); C: negative control group; D: CAL group (100 nM); E: CAL group (10 nM); F: CAL group (1 nM); G: CAG group (100 nM); H: CAG group (10 nM); I: CAG group (1 nM); J: Radix Astragali group (RA, 50 mg/ml aqueous extract); K: CAL:CAG group (10 μg/ml:5 μg/ml); L: CAL:CAG group (5 μg/ml:10 μg/ml).
(§1) The treatment was the same as section 2.1 in Experiment 1. The measurement of matrix proliferation was measured by determinating the content of hydroxyproline and the expression of TGFβ-1.
(§2) The coverslips were pre-placed in the 24-wells plates to stick the cells. The cells were treated with various concentrations of reagents as indicated in Experiment 1. After the cells covered with coverslip, the supernatant was used for the determination of hydroxyproline and the slides of cells were treated with stained with immunohistochemical and PAS staining. The cells cultured without TGFβ-1 antibody were taken as the negative control.

rat mesangial cells [1] = experiment: ECM accrementition induced by high glucose (PAS staining, FIG. 1); type: cell-based; details: 25 mM glucose
Procedure: wherein A: normal glucose group; B: high glucose group (25 mM); C: Radix Astragali group (RA, 50 mg/ml aqueous extract); D: CAL group (100 nM); E: CAL group (10 nM); F: CAL group (1 nM); G: CAG group (100 nM); H: CAG group (10 nM); I: CAG group (1 nM); J: CAL:CAG group (10 μg/ml:5 μg/ml). K: CAL:CAG group ([…]:10 μg/ml).
as §1, §2

rat mesangial cells [2] = experiment: Content of hydroxyproline in cell culture fluid of rat mesangial cells induced by high glucose; type: cell-based; details: high glucose (25 mM)
Procedure: as §1, §2

[3] = tested on: DN model Wistar rats induced by streptozotocin; experiment: STZ DN model rat: serum biochemical indicators; type: in vivo; parameters: AGEs (advanced glycosylation end products): unit not given here
Procedure: (§3) The DN model Wistar rats were randomly divided into […] with 10 rats each group as indicated: normal glucose group; model group; CAL group (6, 2, 0.7 mg/kg); CAG group (9, 3, 1 mg/kg); CAL+CAG group (CAL:CAG, 2 mg/kg:1 mg/kg, 1 mg/kg:2 mg/kg); Radix Astragali group (5 g/kg); Aminoguanidine group (100 mg/kg).
(§4) The drugs or sodium chloride were intragastric adminstrated once each day for 14 weeks. After the administration, the total volume urine was collected by metabolic cage. The contents of urinary production, total protein, microalbumin and creatinine were determinated, and the biochemical indicators in blood was determinated using automatic biochemical analyzer. Then the kideny with fog Hahn fixation was reserved for histopathological examination.

[4] = tested on: DN model Wistar rats induced by streptozotocin; experiment: STZ DN model rat: pathohistological indicators; type: in vivo; details: kidney
Procedure: as §3, §4

[5] = tested on: Rat mesangial cell line HBZY21; experiment: High glucose-induced rat mesangial cell proliferation (MTT reduction assay); type: cell-based; details: 25 mM glucose, 24 h
Procedure: (§5) The mesangial cells in their exponential growth phase were cultured in 96-well plates at densities of 50000 cm^−2 in DMEM (5 mM glucose) at 37° C. in 5% CO2-95% air for 24 h. After pre-incubation in DMEM supplemented without fetal calf serum for 24 h, cells were then treated with various concentrations of glucose or AGEs for 24 h, 48 h, 72 h, 96 h, respectively.
According to the aboved method, after pre-incubation in DMEM supplemented without fetal calf serum for 24 h, cells were pretreated with 25 mM glucose, then were treated with various concentrations of reagents as indicated: normal glucose group (NG, 5.5 mM glucose); high glucose group (HG, 25 mM glucose); CAL group (CAL, 10, 100 nM); CAG group (CAG, 10, 100 nM); CAL+CAG group (CAL:CAG, 10 μg/ml:5 μg/ml, 5 μg/ml:10 μg/ml); Radix Astragali group (RA, 50 mg/ml aqueous extract). The plates were then incubated for 24 h. Proliferation was examined by MTT reduction assay. Experimental conditions were tested in sextuplicate (six wells of the 96-well plate per experimental condition).

[6] = tested on: Rat mesangial cell line HBZY21; experiment: AGEs-induced rat mesangial cell proliferation (MTT reduction assay); type: cell-based; details: 0.25 mg/ml AGEs, 24 h
Procedure: as §5
Cells were pretreated with 0.25 mg/mlAGEs, then were treated with various concentrations of reagents as indicated: normal glucose group (NG, 5.5 mM glucose); AGEs group (AGEs, 0.25 mg/mlAGEs); CAL group (CAL, 10, 100 nM); CAG group (CAG, 10, 100 nM); CAL+CAG group (CAL:CAG, 10 μg/ml:5 μg/ml, 5 μg/ml:10 μg/ml); Radix Astragali group (RA, 50 mg/ml aqueous extract). The plates were then incubated for 24 h. Proliferation was examined by MTT reduction assay. Experimental conditions were tested in sextuplicate (six wells of the 96-well plate per experimental condition).

[7] = tested on: DN model Wistar rats induced by streptozotocin; experiment: STZ DN model rat: urinary production, total protein, microalbumin and creatinine; type: in vivo; details: for Microalbumin: urine
Procedure: as §3, §4

[8] = 0.7 mg/kg intragastric once each day for 14 weeks
[9] = 2 mg/kg intragastric once each day for 14 weeks
[10] = 6 mg/kg intragastric once each day for 14 weeks

COc1ccc(-c2coc3cc(O)ccc3c2=O)cc1O [CAL]
expression of TGFβ-1 induced by high glucose (TGFβ-1): inhibited
ECM accrementition induced by high glucose (rat mesangial cells [1]): inhibited
Content of hydroxyproline in cell culture fluid (rat mesangial cells [2]; 10 nM): 7.15 ± 1.19 µg/mL
Content of hydroxyproline in cell culture fluid (rat mesangial cells [2]; 100 nM): 6.65 ± 1.74 µg/mL
AGEs (advanced glycosylation end products) [3, 8]: 290 ± 59
BUN (Blood urea nitrogen) [3, 8]: 7.0 ± 1.0 mmol/L
LDL [3, 8]: 1.91 ± 0.55 mmol/L
MDA (malonaldehyde) [3, 8]: 7.8 ± 2.3 nmol/mL
SOD (superoxide dismutase) [3, 8]: 498 ± 33 U/ml
Scr (serum creatinine) [3, 8]: 91.0 ± 31.1 µmol/L
triglyceride [3, 8]: 3.23 ± 0.76 mmol/L
AGEs (advanced glycosylation end products) [3, 9]: 289 ± 56
BUN (Blood urea nitrogen) [3, 9]: 6.6 ± 1.2 mmol/L
LDL [3, 9]: 1.51 ± 0.53 mmol/L
MDA (malonaldehyde) [3, 9]: 6.8 ± 1.9 nmol/mL
SOD (superoxide dismutase) [3, 9]: 513 ± 41 U/ml
Scr (serum creatinine) [3, 9]: 76.6 ± 24.5 µmol/L
triglyceride [3, 9]: 2.76 ± 0.80 mmol/L
AGEs (advanced glycosylation end products) [3, 10]: 281 ± 78
BUN (Blood urea nitrogen) [3, 10]: 6.5 ± 1.5 mmol/L
LDL [3, 10]: 1.43 ± 0.36 mmol/L
MDA (malonaldehyde) [3, 10]: 6.8 ± 1.3 nmol/mL
SOD (superoxide dismutase) [3, 10]: 520 ± 29 U/ml
Scr (serum creatinine) [3, 10]: 75.2 ± 17.1 µmol/L
triglyceride [3, 10]: 2.57 ± 0.80 mmol/L
ECM score (PAS %) [4, 8]: 33.1 ± 5.1%
Patho-score [4, 8]: 2.7 ± 1.0
TGFβ-1 (%) [4, 8]: 19.3 ± 6.3 %
ECM score (PAS %) [4, 9]: 29.8 ± 5.6 %
Patho-score [4, 9]: 1.8 ± 1.3
TGFβ-1 (%) [4, 9]: 17.6 ± 5.8 %
ECM score (PAS %) [4, 10]: 27.0 ± 5.5 %
Patho-score [4, 10]: 1.6 ± 1.1
TGFβ-1 (%) [4, 10]: 8.8 ± 3.2 %
OD value (λ = 490 nm) ([5]; 10 nM): 0.34 ± 0.02
OD value (λ = 490 nm) ([5]; 100 nM): 0.33 ± 0.05
OD value (λ = 490 nm) ([6]; 10 nM): 0.42 ± 0.04
OD value (λ = 490 nm) ([6]; 100 nM): 0.34 ± 0.04
Urinary production [7, 8]: 59.9 ± 21.8 mL
Urine creatinine [7, 8]: 1.4 ± 0.6 mM
Urine protein [7, 8]: 69.1 ± 20.4 mg
Urinary production [7, 9]: 41.3 ± 16.8 mL
Urine creatinine [7, 9]: 2.9 ± 1.2 mM
Urine protein [7, 9]: 54.0 ± 17.4 mg
Urinary production [7, 10]: 35.9 ± 22.2 mL
Urine creatinine [7, 10]: 4.3 ± 2.0 mM
Urine protein [7, 10]: 46.2 ± 21.3 mg
Microalbumin [7, 8]: 1.57 ± 0.56 mg
Microalbumin [7, 9]: 0.93 ± 0.55 mg
Microalbumin [7, 10]: 0.92 ± 0.42 mg
